Source: patent publication US20160185797A1, “ALKYNYL ALCOHOLS AND METHODS OF USE” (Genentech, Inc., priority 2013, published 2016)

Experiments:
[1] = test system: p52 (NF-kB2) nuclear translocation in HeLa cells; experiment: p52 (NF-kB2) nuclear translocation assay in HeLa cells, anti-lymphotoxin beta receptor antibody stimulated (non-classical NF-kB signaling), high content imaging; type: cell-based; conditions: Homo sapiens, 100 ng/mL anti-lymphotoxin beta receptor antibody for 5 hours, read-out: p52 HeLa Transloc Assay (IC50)
Description: (§1) Several assays were developed to profile the cellular activities of NIK inhibitors.
(§2) (2) A second set of cell assay are used to define the selectivity of NIK inhibitors toward inhibition of classical vs. non-classical NF-kB signaling and rely on quantification of the nuclear translocation of p52 (NF-kB2) and REL-A (p65) using high content cellular imaging. For the p52 (non-classical NF-kB signaling) nuclear translocation assay, HeLa cells are treated with different concentrations of compounds (0.2% DMSO final) in medium containing 10% fetal bovine serum and then stimulated with 100 ng/mL of an anti-lymphotoxin beta receptor antibody (R&D Systems) for 5 hours. In the REL-A nuclear translocation assay, HeLa cells are incubated with compounds (0.2% DMSO final) for 4.5 hours in medium containing 10% fetal bovine serum before stimulating them with 10 ng/mL tumor necrosis factor (TNF)-α (R&D Systems) for 30 minutes. Cells are fixed with 4% paraformaldehyde, permeabilized by adding 0.1% Triton X-100 in phosphate buffered saline, and then are incubated with either 2 ug/mL anti-p52 antibody (Millipore) or 400 ng/mL anti-REL-A (p65) antibody (Santa Cruz Biotechnology). Finally, the cells are incubated with an Alexa488-labeled secondary antibody (Invitrogen) and DRAQ5 DNA stain (Biostatus). Imaging is carried out using an Opera reader (Perkin Elmer) and data are analyzed with the aid of Acapella software (Perkin Elmer). The p52 or REL-Atranslocation into the nucleus is quantified by the ratio of the nuclear to cytoplasmic signal intensity. […] The compounds in listed in Table 1 have the corresponding inhibitory value (IC50 in micromolar) for NIK p52 Translocation Assay as set forth in Table 2.
(§3) The compounds in listed in Table 1 have the corresponding inhibitory values (IC50 in micromolar) for the Translocation Assays as set forth in Table 2.

[2] = test system: REL-A (p65) nuclear translocation in HeLa cells; experiment: REL-A (p65) nuclear translocation assay in HeLa cells, TNF-α stimulated (classical NF-kB signaling), high content imaging; type: cell-based; conditions: Homo sapiens, HeLa, compound 4.5 h, then 10 ng/mL TNF-α for 30 minutes, read-out: REL-A HeLa Transloc Assay (IC50)
Description: as §1, §2, §3

[3] = molecular target: T1, nuclear factor-kappa B (NF-kB)-inducing kinase (NIK) (Homo sapiens, UniProt Q99558); experiment: NIK enzyme inhibition assay (Transcreener ADP fluorescence polarization, NIK ADP-FP); type: biochemical
T1 construct: made in house; host or cells: baculovirus-infected insect cells
T1 sequence (Q99558 whole entry): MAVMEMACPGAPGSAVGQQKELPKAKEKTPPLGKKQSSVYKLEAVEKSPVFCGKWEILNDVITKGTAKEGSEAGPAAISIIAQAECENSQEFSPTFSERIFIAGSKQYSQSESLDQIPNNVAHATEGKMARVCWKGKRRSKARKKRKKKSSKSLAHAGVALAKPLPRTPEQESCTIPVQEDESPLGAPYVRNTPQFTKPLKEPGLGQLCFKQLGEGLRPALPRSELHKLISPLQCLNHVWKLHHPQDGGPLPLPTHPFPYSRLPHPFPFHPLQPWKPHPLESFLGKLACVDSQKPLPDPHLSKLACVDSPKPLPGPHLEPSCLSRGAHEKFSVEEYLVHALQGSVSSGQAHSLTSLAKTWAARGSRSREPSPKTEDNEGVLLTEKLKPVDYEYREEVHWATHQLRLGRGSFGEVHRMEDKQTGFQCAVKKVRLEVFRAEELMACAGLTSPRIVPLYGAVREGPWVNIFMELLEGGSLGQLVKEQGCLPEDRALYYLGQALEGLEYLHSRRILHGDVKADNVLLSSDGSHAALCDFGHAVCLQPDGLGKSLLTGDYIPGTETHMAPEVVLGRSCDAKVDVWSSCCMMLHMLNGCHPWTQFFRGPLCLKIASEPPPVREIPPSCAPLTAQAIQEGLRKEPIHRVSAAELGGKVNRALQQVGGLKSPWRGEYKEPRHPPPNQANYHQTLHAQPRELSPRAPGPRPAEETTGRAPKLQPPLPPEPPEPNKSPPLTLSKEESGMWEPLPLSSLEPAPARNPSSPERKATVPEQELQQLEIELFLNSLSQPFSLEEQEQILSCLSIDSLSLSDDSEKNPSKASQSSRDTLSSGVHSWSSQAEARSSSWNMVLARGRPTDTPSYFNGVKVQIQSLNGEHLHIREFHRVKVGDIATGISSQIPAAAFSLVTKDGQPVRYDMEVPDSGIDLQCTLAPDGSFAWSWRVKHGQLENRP

SMILES	IC50 [1]	IC50 [2]	Ki [3]
CN1CC[C@@](O)(C#Cc2cccc(-c3nc(C(N)=O)cc(-n4ccnc4)n3)c2)C1=O [Example 70, 2-[3-[2-[(3R)-3-hydroxy-1-methyl-2-oxo-pyrrolidin-3-yl]ethynyl]phenyl]-6-imidazol-1-yl-pyrimidine-4-carboxamide]	79 nM	≥ 20000 nM	0.94 nM
COCC1CCCN1c1cc(C(N)=O)nc(-c2cccc(C#C[C@]3(O)CCN(C)C3=O)c2)n1 (stereo partly drawn) [Example 18, 2-[3-[2-[(3R)-3-hydroxy-1-methyl-2-oxo-pyrrolidin-3-yl]ethynyl]phenyl]-6-[2-(methoxymethyl)pyrrolidin-1-yl]pyrimidine-4-carboxamide]	39 nM	> 20000 nM	2.19 nM
CN1CC[C@@](O)(C#Cc2cccc(-c3nc(C(N)=O)cc(C(F)(F)F)n3)c2)C1=O [Example 17, 2-[3-[2-[(3R)-3-hydroxy-1-methyl-2-oxo-pyrrolidin-3-yl]ethynyl]phenyl]-6-(trifluoromethyl)pyrimidine-4-carboxamide]	225 nM	> 20000 nM	0.84 nM
CN1CC[C@@](O)(C#Cc2cccc(-c3nc(C(N)=O)cc(N4CC[C@H]4c4cccs4)n3)c2)C1=O [Example 27, 2-[3-[2-[(3R)-3-hydroxy-1-methyl-2-oxo-pyrrolidin-3-yl]ethynyl]phenyl]-6-[(2S)-2-(2-thienyl)azetidin-1-yl]pyrimidine-4-carboxamide]	87.2 nM	> 20000 nM	3.34 nM
CN1CC[C@@](O)(C#Cc2cccc(-c3cnc(N)c(C(N)=O)n3)c2)C1=O [Example 62, 3-amino-6-[3-[2-[(3R)-3-hydroxy-1-methyl-2-oxo-pyrrolidin-3-yl]ethynyl]phenyl] pyrazine-2-carboxamide]	11.5 nM	1000 nM	0.11 nM
CN1CC[C@@](O)(C#Cc2cccc(-c3nc(C(N)=O)c4cccc(F)c4n3)c2)C1=O [Example 41, 8-fluoro-2-[3-[2-[(3R)-3-hydroxy-1-methyl-2-oxo-pyrrolidin-3-yl]ethynyl]phenyl]quinazoline-4-carboxamide]	26.4 nM	> 20000 nM	0.22 nM
CN1CC[C@@](O)(C#Cc2cccc(-c3nc(C(N)=O)cc(-c4ccnn4C)n3)c2)C1=O [Example 33, 2-[3-[2-[(3R)-3-hydroxy-1-methyl-2-oxo-pyrrolidin-3-yl]ethynyl]phenyl]-6-(2-methylpyrazol-3-yl) pyrimidine-4-carboxamide]	36.3 nM	> 28000 nM	< 0.05 nM
Cc1ccnn1-c1cc(C(N)=O)nc(-c2cccc(C#C[C@]3(O)CCN(C)C3=O)c2)n1 [Example 71, 2-[3-[2-[(3R)-3-hydroxy-1-methyl-2-oxo-pyrrolidin-3-yl]ethynyl]phenyl]-6-(5-methylpyrazol-1-yl) pyrimidine-4-carboxamide]	8.94 nM	≥ 20000 nM	0.18 nM
CN1CC[C@@](O)(C#Cc2cccc(-c3nc(C(N)=O)c(N)c(-n4cccn4)n3)c2)C1=O [Example 72, 5-amino-2-[3-[2-[(3R)-3-hydroxy-1-methyl-2-oxo-pyrrolidin-3-yl]ethynyl]phenyl]-6-pyrazol-1-yl-pyrimidine-4-carboxamide]	6.43 nM	6320 nM	0.05 nM
CN1CC[C@@](O)(C#Cc2cccc(-c3nc(C(N)=O)cc(N4CC[C@@H]4c4cccs4)n3)c2)C1=O [Example 26, 2-[3-[2-[(3R)-3-hydroxy-1-methyl-2-oxo-pyrrolidin-3-yl]ethynyl]phenyl]-6-[(2R)-2-(2-thienyl)azetidin-1-yl] pyrimidine-4-carboxamide]	110 nM	> 20000 nM	4.85 nM
CN1CC[C@@](O)(C#Cc2cccc(-c3nc(N[C@@H]4CCOC4)cc(C(N)=O)n3)c2)C1=O [Example 31, 2-[3-[2-[(3R)-3-hydroxy-1-methyl-2-oxo-pyrrolidin-3-yl]ethynyl]phenyl]-6-[[(3R)-tetrahydrofuran-3-yl]amino] pyrimidine-4-carboxamide]	479 nM	> 20000 nM	0.93 nM
COCCNc1cc(F)c(-c2cccc(C#C[C@]3(O)CCN(C)C3=O)c2)nc1C(N)=O [Example 80, 5-fluoro-6-[3-[2-[(3R)-3-hydroxy-1-methyl-2-oxo-pyrrolidin-3-yl]ethynyl]phenyl]-3-(2-methoxyethylamino) pyridine-2-carboxamide]	4.65 nM	≥ 20000 nM	0.05 nM
CN1CC[C@@](O)(C#Cc2cccc(-c3nc(C(N)=O)c4ccc(F)cc4n3)c2)C1=O [Example 43, 7-fluoro-2-(3-[2-[(3R)-3-hydroxy-1-methyl-2-oxopyrrolidin-3-yl]ethynyl]phenyl)quinazoline-4-carboxamide]	14.1 nM	> 20000 nM	0.08 nM
CN1CC[C@@](O)(C#Cc2cccc(-c3ncc(NCC4COC4)c(C(N)=O)n3)c2)C1=O [Example 100, 2-[3-[2-[(3R)-3-hydroxy-1-methyl-2-oxo-pyrrolidin-3-yl]ethynyl]phenyl]-5-(oxetan-3-ylmethylamino) pyrimidine-4-carboxamide]	11.6 nM	≥ 20000 nM	0.1 nM
CN1CC[C@@](O)(C#Cc2cccc(-c3cc(OC4COC4)cc(C(N)=O)n3)c2)C1=O [Example 122, 6-[3-[2-[(3R)-3-hydroxy-1-methyl-2-oxo-pyrrolidin-3-yl]ethynyl]phenyl]-4-(oxetan-3-yloxy) pyridine-2-carboxamide]	226 nM	≥ 2000 nM	0.81 nM
Cc1ccn(-c2cc(C(N)=O)nc(-c3cccc(C#C[C@]4(O)CCN(C)C4=O)c3)n2)n1 [Example 166, 2-[3-[2-[(3R)-3-hydroxy-1-methyl-2-oxo-pyrrolidin-3-yl]ethynyl]phenyl]-6-(3-methylpyrazol-1-yl)pyrimidine-4-carboxamide]	59 nM	> 2000 nM	< 0.05 nM
CN1CC[C@@](O)(C#Cc2cccc(-c3nc(C(N)=O)cc(N4CC(F)(F)C4)n3)c2)C1=O [Example 8, 6-(3,3-difluoroazetidin-1-yl)-2-[3-[2-[(3R)-3-hydroxy-1-methyl-2-oxo-pyrrolidin-3-yl]ethynyl]phenyl]pyrimidine-4-carboxamide]	211 nM	> 20000 nM	2.35 nM
CN1CC[C@@](O)(C#Cc2cccc(-c3nc(C(N)=O)cc(N4CC5(COC5)C4)n3)c2)C1=O [Example 11, 2-[3-[2-[(3R)-3-hydroxy-1-methyl-2-oxo-pyrrolidin-3-yl]ethynyl]phenyl]-6-(6-oxa-2-azaspiro[3.3]heptan-2-yl) pyrimidine-4-carboxamide]	2500 nM	> 20000 nM	4.65 nM
CN1CC[C@@](O)(C#Cc2cccc(-c3cc4c(Cl)c[nH]c4c(C(N)=O)n3)c2)C1=O [Example 78, 3-chloro-5-[3-[2-[(3R)-3-hydroxy-1-methyl-2-oxo-pyrrolidin-3-yl]ethynyl]phenyl]-1H-pyrrolo[2,3-c]pyridine-7-carboxamide]	8.3 nM	15700 nM	0.1 nM
CN1CC[C@@](O)(C#Cc2cccc(-c3cc(-c4ccnn4C)nc(C(N)=O)n3)c2)C1=O [Example 53, 4-[3-[2-[(3R)-3-hydroxy-1-methyl-2-oxo-pyrrolidin-3-yl]ethynyl]phenyl]-6-(2-methylpyrazol-3-yl) pyrimidine-2-carboxamide]	725 nM	≥ 20000 nM	0.67 nM
CN1CC[C@@](O)(C#Cc2cccc(-c3ncc(NCCN4CCOCC4)c(C(N)=O)n3)c2)C1=O [Example 102, 2-[3-[2-[(3R)-3-hydroxy-1-methyl-2-oxo-pyrrolidin-3-yl]ethynyl]phenyl]-5-(2-morpholinoethylamino) pyrimidine-4-carboxamide]	66.9 nM	≥ 20000 nM	0.21 nM
CC(C)c1cc(C(N)=O)nc(-c2cccc(C#C[C@]3(O)CCN(C)C3=O)c2)n1 [Example 16, 2-[3-[2-[(3R)-3-hydroxy-1-methyl-2-oxo-pyrrolidin-3-yl]ethynyl]phenyl]-6-isopropyl-pyrimidine-4-carboxamide]	191 nM	> 20000 nM	0.54 nM
CN1CC[C@@](O)(C#Cc2cccc(-c3nc(C(N)=O)cc4c3ncn4C)c2)C1=O [Example 47, 4-[3-[2-[(3R)-3-hydroxy-1-methyl-2-oxo-pyrrolidin-3-yl]ethynyl]phenyl]-1-methyl-imidazo[4,5-c] pyridine-6-carboxamide]	270 nM	≥ 20000 nM	0.94 nM
